Literature values, collected in PMC12737022, “Evaluations of Sex Differences in Dosimetry in Rats Following Perfluorohexanesulfonamide (PFHxSA) Oral Exposure” (Toxics, 2025).

Columns and labels:
[1] = design: method as in PMID 31078680; conditions: cited from earlier work; for Liver partitioning values: male rats
[2] = design: method as in PMID 40710967; conditions: SD rats following PFHxSA administration; cited from earlier work
[3] = design: method as in PMID 37756184; conditions: bariatric surgery patients; cited from earlier work

## O=C(O)C(F)(F)C(F)(F)C(F)(F)F [PFBA]
[1]; across both sexes
  Liver partitioning summary values: 0.16–0.44

## O=C(O)C1OC(NS(=O)(=O)C(F)(F)C(F)(F)C(F)(F)C(F)(F)C(F)(F)C(F)(F)F)C(O)C(O)C1O (stereo not drawn) [PFHxSA-glucuronide]
[2]
  Share of the PFAS detected following dosing: less than 3%

## O=C(O)C(F)(F)C(F)(F)C(F)(F)C(F)(F)C(F)(F)C(F)(F)C(F)(F)F [PFOA, perfluorooctanoic acid, reference compound]
[3]
  Human liver/plasma partitioning Kp: 0.26
[1]
  Liver partitioning values: 1.5 to 10.9

## O=S(=O)(O)C(F)(F)C(F)(F)C(F)(F)C(F)(F)C(F)(F)C(F)(F)C(F)(F)C(F)(F)F [PFOS, perflurooctanesulfonic acid]
[1]
  Liver partitioning values: 1.5 to 10.9

## O=S(O)C(F)(F)C(F)(F)C(F)(F)C(F)(F)C(F)(F)C(F)(F)F [perfluorohexanesulfinic acid]
[2]
  Share of the PFAS detected following dosing: less than 3%
